pIC50: −log10 of the molar value. Where two headings read alike, the source gives them in different places.
Assays:
L929 cells [1] = assay: AO fluorescent staining cell viability; type: cell-based; conditions: 100 μM, compared with the control group
Description: Using the AO Fluorescent Staining Kit, AO is a tricyclic heteroaromatic dye that can penetrate cells with intact cell membranes and embed nuclear DNA, making them emit bright green fluorescence. L929 cells were selected from the logarithmic growth phase, and the cell density was adjusted to 8 × 10^5 per well with a cell counter to inoculate in a 6-well plate, and the 6-well plate was placed in a 37 °C 5% carbon dioxide cell incubator for 12 h. It grew completely adhering to the wall. After 12 h, 1 mL of medium containing 100 μM of the compound to be tested was added (for the blank group, drug-free medium was added), shaken gently, and placed in a 5% carbon dioxide cell incubator at 37 °C for 12 h. After 12h, the medium was discarded, PBS was added to wash once, 1 mL of PBS and 80 μL of AO solution (prepared according to the kit instructions) were slowly added in the dark, and mixed for 5 min to make the staining uniform and sufficient. The staining was aspirated after 5 min, washed 1–2 times with PBS, and observed under a fluorescence microscope, the results were recorded and analyzed.

BChE [2] = biological target: T1, BChE (Homo sapiens, UniProt P06276); assay: biochemical; conditions: compounds concentration 100 µM; read-out: Inhibition Rate BChE
Description: Inhibition of AChE and BChE was measured through the spectrophotometric method developed by Ellman’s method with slight modifications. The analysis protocol contained 96-well plates (100 µL per well). Each well involved 20 µL of assay buffer solution, 20 µL of the test sample, and 40 µL of 0.2 U/mL of AChE or BChE. The mixture was incubated for 10 min at 25 °C followed by the addition of substrate (20 µL). For AChE inhibition assay, acetylthiocholine iodide (ATCI, 0.001 mol/L), while for BChE assay, butyrylthiocholine chloride (BTCCl, 0.001 mol/L) was added to it. The mixture was incubated at 37 °C for 15 min. Ellman reagent (5,5′-dithio-bis(2-nitrobenzoic acid), DTNB, 0.001 mol/L) was added. […] The blank analysis was performed. All the analyses were performed in triplicate. Inhibition rate of experimental sample or positive control group (%) = [(control group-blank background)-(experimental sample or positive control group -sample background)]/(control-blank background) × 100%.

MAO = MAO activity assay (total MAO); type: biochemical
Description: (§1) The enzyme activity analysis was performed according to the procedure reported by Matsumoto et al. with slight modifications. All materials used in the enzymatic assays were purchased from Aladdin Reagent Chemicals. […] The concentrations of the synthesized compounds altered from 0.001 µM to 100 µM for the MAO-A and -B enzyme activity inhibition. […] The enzymatic reactions were caused by the addition of MAO-A (40 µg/mL) or MAO-B (20 µg/mL), and cultured at 37 °C for 30 min. The enzyme reactions were stopped through the addition of 2N NaOH for 75 µL. […] The inhibitory effect of enzyme activity was calculated as a percentage of product formation compared to the corresponding control with no inhibitor. A control was established to determine the interference of the tested compounds to the fluorescence assay, and the enzyme or substrate was added after the reaction stopped.

MAO-B [3] = biological target: T2, MAO-B (Homo sapiens, UniProt P27338); assay: MAO activity assay, MAO-B; type: biochemical
T2 construct: purchased Aladdin Reagent Chemicals
T2 sequence (P27338 1-520): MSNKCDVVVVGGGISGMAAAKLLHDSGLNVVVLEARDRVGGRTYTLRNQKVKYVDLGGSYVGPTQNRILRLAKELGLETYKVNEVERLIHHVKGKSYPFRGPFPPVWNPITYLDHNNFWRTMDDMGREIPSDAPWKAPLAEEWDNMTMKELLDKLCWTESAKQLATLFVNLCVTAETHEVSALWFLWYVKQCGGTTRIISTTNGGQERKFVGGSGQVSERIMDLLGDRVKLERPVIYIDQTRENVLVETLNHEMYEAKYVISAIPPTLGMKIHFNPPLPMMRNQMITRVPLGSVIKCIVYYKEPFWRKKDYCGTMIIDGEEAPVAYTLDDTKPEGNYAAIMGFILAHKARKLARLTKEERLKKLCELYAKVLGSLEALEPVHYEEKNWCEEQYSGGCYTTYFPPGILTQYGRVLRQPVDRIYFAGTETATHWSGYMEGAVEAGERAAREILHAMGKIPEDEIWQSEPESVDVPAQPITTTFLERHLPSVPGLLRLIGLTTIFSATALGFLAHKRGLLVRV
Description: as §1

MTT cytotoxicity test = type: cell-based; conditions: mouse; L929 cells, compared with the blank control, 3.125 to 100 μM
Description: (§2) L929 cells in the logarithmic growth phase were selected, and the cell density was adjusted to 2 × 10^4 per well by a cell counter. The 96-well plate was inoculated in a 96-well plate, and the 96-well plate inoculated with cells was cultured in a 37 °C 5% carbon dioxide cell incubator for 24 h. Then, the medium containing 100 μM of the compound to be tested was added (the blank group was added to the medium without drug), shaken gently, and placed in a 5% carbon dioxide cell incubator at 37 °C for 24 h. Each concentration was repeated for […].
(§3) The assay detects live cells, but not dead cells, and the resulting signal depends on how activated the cells are. […] Therefore, MTT has been used to establish quantitative colorimetric assays for mammalian cell survival and proliferation. Therefore, this method can be used to measure cytotoxicity, proliferation, or activation. After 24 h, 20 μL of […] MTT solution (prepared in PBS with pH 7.6) was added in the dark, and cultured in a cell incubator for another 4 h. After 4 h, the 96 plate was taken out to discard the original medium, and 160 μL of DMSO was added, placed on a shaker, and mixed for about 10 min. Then, a microplate reader was used to measure its absorbance at 490 nm, and the results were recorded and analyzed.

L929 cells [4] = assay: MTT cytotoxicity test; type: cell-based; conditions: MTT, 3.125 to 100 μM
Description: as §2, §3

MAO-A [5] = biological target: T3, MAO-A (Homo sapiens, UniProt P21397); assay: MAO activity assay, MAO-A; type: biochemical
T3 construct: purchased Aladdin Reagent Chemicals
T3 sequence (P21397 1-527): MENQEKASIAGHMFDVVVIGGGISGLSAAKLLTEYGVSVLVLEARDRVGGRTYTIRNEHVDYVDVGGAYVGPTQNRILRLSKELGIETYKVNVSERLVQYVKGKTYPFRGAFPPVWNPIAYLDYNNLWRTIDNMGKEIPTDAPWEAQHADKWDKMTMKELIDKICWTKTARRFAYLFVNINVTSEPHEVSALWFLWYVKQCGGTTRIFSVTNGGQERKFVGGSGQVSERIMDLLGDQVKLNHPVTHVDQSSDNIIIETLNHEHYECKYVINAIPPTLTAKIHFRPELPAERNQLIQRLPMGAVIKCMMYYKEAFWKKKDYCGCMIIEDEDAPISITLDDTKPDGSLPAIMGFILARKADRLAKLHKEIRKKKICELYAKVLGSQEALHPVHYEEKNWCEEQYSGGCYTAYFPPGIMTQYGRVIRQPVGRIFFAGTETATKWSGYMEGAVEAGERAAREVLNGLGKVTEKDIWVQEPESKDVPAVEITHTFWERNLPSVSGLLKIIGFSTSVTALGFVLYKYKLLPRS
Description: as §1

[6] = biological target: electric eel acetylcholinesterase (EeAChE); conditions: cited from earlier work
MAO-A [7] = biological target: T3, MAO-A; conditions: cited from earlier work
[8] = biological target: horse serum butyrylcholinesterase (EqBChE); conditions: cited from earlier work
BChE [9] = biological target: T1, BChE; conditions: cited from earlier work
AChE = AChE (Homo sapiens, UniProt P22303); conditions: cited from earlier work
[10] = set-up: method as in doi:10.1007/s00044-018-2261-2; conditions: forced swimming test, p< 0.001; cited from earlier work
MAO-B [11] = biological target: T2, MAO-B; conditions: cited from earlier work

T1 sequence (P06276 29-602): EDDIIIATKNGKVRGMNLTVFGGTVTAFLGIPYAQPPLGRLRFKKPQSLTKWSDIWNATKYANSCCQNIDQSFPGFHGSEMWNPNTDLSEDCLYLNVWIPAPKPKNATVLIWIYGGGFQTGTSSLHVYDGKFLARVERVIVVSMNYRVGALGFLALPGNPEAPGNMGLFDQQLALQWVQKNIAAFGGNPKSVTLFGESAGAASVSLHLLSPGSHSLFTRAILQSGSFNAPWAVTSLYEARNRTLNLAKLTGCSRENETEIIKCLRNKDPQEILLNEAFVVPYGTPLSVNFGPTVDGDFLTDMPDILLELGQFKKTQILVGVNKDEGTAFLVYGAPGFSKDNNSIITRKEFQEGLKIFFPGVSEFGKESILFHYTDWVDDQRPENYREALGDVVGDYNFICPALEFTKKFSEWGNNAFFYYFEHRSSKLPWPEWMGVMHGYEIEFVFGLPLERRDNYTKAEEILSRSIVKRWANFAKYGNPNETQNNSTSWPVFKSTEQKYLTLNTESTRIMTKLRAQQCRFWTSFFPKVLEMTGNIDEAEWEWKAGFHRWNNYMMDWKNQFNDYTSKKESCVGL
Sequence of AChE (P22303 32-614): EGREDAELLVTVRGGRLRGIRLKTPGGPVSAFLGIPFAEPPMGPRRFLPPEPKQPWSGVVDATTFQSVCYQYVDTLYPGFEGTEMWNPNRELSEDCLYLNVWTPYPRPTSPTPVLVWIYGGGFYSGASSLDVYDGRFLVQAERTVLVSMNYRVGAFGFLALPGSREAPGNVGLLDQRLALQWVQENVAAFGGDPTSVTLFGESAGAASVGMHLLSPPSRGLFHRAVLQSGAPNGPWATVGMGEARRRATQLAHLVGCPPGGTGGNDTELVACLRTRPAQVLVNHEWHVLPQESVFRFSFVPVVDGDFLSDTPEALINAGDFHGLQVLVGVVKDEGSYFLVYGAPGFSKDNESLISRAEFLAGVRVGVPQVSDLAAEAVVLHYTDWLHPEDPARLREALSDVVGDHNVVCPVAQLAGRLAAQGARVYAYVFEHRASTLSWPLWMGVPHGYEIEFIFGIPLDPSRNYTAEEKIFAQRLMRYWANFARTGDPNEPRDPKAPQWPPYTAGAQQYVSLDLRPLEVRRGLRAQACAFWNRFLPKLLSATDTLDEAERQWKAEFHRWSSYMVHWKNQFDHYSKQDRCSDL

| Compound | toxicity toward L929 cells (AO fluorescence staining) (L929 cells [1]) | pIC50 (MAO) | pIC50 (MAO-B [3]) | viability at 24 h (MTT cytotoxicity test) | cytotoxicity against L929 cells (L929 cells [4]) | pIC50 (MAO-A [5]) | further results |
| --- | --- | --- | --- | --- | --- | --- | --- |
| COc1cccc(CNC(=O)N2CCc3ccccc3[C@@H]2c2ccccc2)c1 [2t, (S)-N-(m-methoxybenzyl)-1-phenyl-3,4-dihydroisoquinoline-2(1H)-carboxamide] | no significant toxicity | 5.68 | 5.79 | > 90% | no obvious cytotoxicity | 5.60 | inhibition at 100 µM (BChE [2]): 55% |
| O=C(NCc1cccc(Br)c1)N1CCc2ccccc2[C@@H]1c1ccccc1 [2i, (S)-N-(m-bromobenzyl)-1-phenyl-3,4-dihydroisoquinoline-2(1H)-carboxamide] | no significant toxicity | 5.87 | 5.37 | > 90% | no obvious cytotoxicity | 5.81 |  |
| C[n+]1cc2cc3c(cc2c2ccc4cc5c(cc4c21)OCO5)OCO3 [avicine] |  |  |  |  |  |  | pIC50 [6]: 6.82; pIC50 (MAO-A [7]): 6.39; pIC50 [8]: 6.06 |
| O=C(NCc1ccc(Br)cc1)N1CCc2ccccc2[C@@H]1c1ccccc1 [2j, (S)-N-(p-bromobenzyl)-1-phenyl-3,4-dihydroisoquinoline-2(1H)-carboxamide] | no significant toxicity | 5.71 | < 4.00 | > 90% | no obvious cytotoxicity | 5.61 | inhibition at 100 µM (BChE [2]): 34.5% |
| O=C(NCc1ccc(F)cc1)N1CCc2ccccc2[C@@H]1c1ccccc1 [2d, (S)-N-(p-fluorobenzyl)-1-phenyl-3,4-dihydroisoquinoline-2(1H)-carboxamide] | no significant toxicity | 5.24 | < 4.00 | > 90% | no obvious cytotoxicity | 5.86 |  |
| COc1ccc(CC2c3cc(O)c(OC)cc3CCN2C)cc1O (stereo not drawn) [reticuline] |  |  |  |  |  |  | pIC50 (BChE [9]): 4.19; pIC50 (AChE): 3.52 |
| O=C(NCc1ccccc1)N1CCc2ccccc2[C@@H]1c1ccccc1 [2a, (S)-N-benzyl-1-phenyl-3,4-dihydroisoquinoline-2(1H)-carboxamide] |  |  |  |  |  |  | Inhibition Rate for MAO (MAO; compounds concentration 100 µM): 29.2%; duration of immobility [10]: 11.0 ± 7.1 s |
| COc1cc2c3c(c1OC)-c1cc4c(cc1CC3NCC2)OCO4 (stereo not drawn) [nornantenine] |  |  |  |  |  |  | pIC50 (BChE [9]): 4.02; pIC50 (AChE): 3.69 |
| Cc1ccccc1CNC(=O)N1CCc2ccccc2[C@@H]1c1ccccc1 [2p, (S)-N-(o-methylbenzyl)-1-phenyl-3,4-dihydroisoquinoline-2(1H)-carboxamide] | no significant toxicity | 6.11 | 5.41 | > 90% | no obvious cytotoxicity | 5.53 |  |
| COc1ccc2c(c[n+](C)c3c4cc5c(cc4ccc23)OCO5)c1OC [chelerythrine] |  |  |  |  |  |  | pIC50 (MAO-B [11]): < 4.70 |

Reference: PMC9967051, “(S)-N-Benzyl-1-phenyl-3,4-dihydroisoqunoline-2(1H)-carboxamide Derivatives, Multi-Target Inhibitors of Monoamine Oxidase and Cholinesterase: Design, Synthesis, and Biological Activity” (Molecules, 2023)
